Data as given in US20130040317A1, “CELL LINES COMPRISING ENDOGENOUS TASTE RECEPTORS AND THEIR USES” (THE UNIVERSITY OF NORTH CAROLINA AT CHAPEL HILL, priority 2011, published 2013).
Like-named read-outs stand apart in the source and are kept apart here.

Key:
Assay type in all cases: cell-based, human
MB9812 cells = assay: FLIPR calcium flux assay, tastant response in MB9812 cells
Experimental: Calcium flux assays were performed as previously described in Strachan et al., “Ribosomal S6 kinase 2 directly phosphorylates the 5-hydroxytryptamine 2A (5-HT2A) serotonin receptor, thereby modulating 5-HT2A signaling,” J Biol Chem 284:5557-5573 (2009). MB9812, NCI-H520 or NCI-H522 cells were trypsinized, counted, and seeded onto clear-bottomed 96 well plates (Greiner Bio-One; Monroe, N.C.) pre-coated with poly-D-lysine, at a density of 7.5×10^5 cells per well. After a 24 hour incubation, media was removed and replaced with a […] assay buffer (20 mM HEPES, 1× HBSS, 2.5 mM probenecid, and Ca^2+ assay dye, pH 7.4) (FLIPR® Calcium Assay Kit; Molecular Device Corp, Sunnyvale, Calif.). After a 1-hour incubation at 37° C., during which the cells were allowed to take up the dye, fluorescence responses of cells were measured with a FLIPRTETRA (Molecular Device Corp; Sunnyvale, Calif.) device upon the addition of variable concentrations of tastant, or vehicle, in the presence of assay buffer (20 mM HEPES, pH 7.4, 1× Hanks Balanced Salt [Invitrogen; Carlsbad, Calif.] and 2.5 mM probenecid). After data acquisition, a subsequent addition of […] was injected into each well, and fluorescence was measured again. Net peak responses to tastants were normalized to net peak responses to thapsigargin. Responses were compared with that of wild-type control MB9812, NCI-H520 or NCI-H522 cells. Statistical and graphical analyses were performed using Prism v. 5.0b (GraphPad Software; La Jolla, Calif.).
MB9812, NCI-H520 and NCI-H522 cells were selected for taste stimulation. The cells were loaded with fluorescent calcium-sensitive dye, treated with a variety of tastants, and monitored for intracellular calcium release with a FLIPR imaging device.

NCI-H520 cells = assay: FLIPR calcium flux assay, tastant response in NCI-H520 cells
Experimental: (§1) Calcium flux assays were performed as previously described in Strachan et al., “Ribosomal S6 kinase 2 directly phosphorylates the 5-hydroxytryptamine 2A (5-HT2A) serotonin receptor, thereby modulating 5-HT2A signaling,” J Biol Chem 284:5557-5573 (2009). MB9812, NCI-H520 or NCI-H522 cells were trypsinized, counted, and seeded onto clear-bottomed 96 well plates (Greiner Bio-One; Monroe, N.C.) pre-coated with poly-D-lysine, at a density of 7.5×10^5 cells per well. After a 24 hour incubation, media was removed and replaced with a […] assay buffer (20 mM HEPES, 1× HBSS, 2.5 mM probenecid, and Ca^2+ assay dye, pH 7.4) (FLIPR® Calcium Assay Kit; Molecular Device Corp, Sunnyvale, Calif.). After a 1-hour incubation at 37° C., during which the cells were allowed to take up the dye, fluorescence responses of cells were measured with a FLIPRTETRA (Molecular Device Corp; Sunnyvale, Calif.) device upon the addition of variable concentrations of tastant, or vehicle, in the presence of assay buffer (20 mM HEPES, pH 7.4, 1× Hanks Balanced Salt [Invitrogen; Carlsbad, Calif.] and 2.5 mM probenecid). After data acquisition, a subsequent addition of […] was injected into each well, and fluorescence was measured again. Net peak responses to tastants were normalized to net peak responses to thapsigargin. […]

NCI-H522 cells = assay: FLIPR calcium flux assay, tastant response in NCI-H522 cells
Experimental: as §1

O=C(CO)[C@@H](O)[C@H](O)[C@H](O)CO [fructose]
cell response to tastant (increase in intracellular calcium, FLIPR calcium flux) (MB9812 cells): response

C=C1C[C@@]23CC[C@H]4[C@@](C)(CCC[C@@]4(C)C(=O)O[C@@H]4O[C@H](CO)[C@@H](O)[C@H](O)[C@H]4O)[C@@H]2CC[C@]1(O[C@@H]1O[C@H](CO)[C@@H](O)[C@H](O[C@@H]2O[C@H](CO)[C@@H](O)[C@H](O)[C@H]2O)[C@H]1O[C@@H]1O[C@H](CO)[C@@H](O)[C@H](O)[C@H]1O)C3 [Rebaudioside A]
cell response to tastant (increase in intracellular calcium, FLIPR calcium flux) (NCI-H520 cells): respond

CC[N+](CC)(CC(=O)Nc1c(C)cccc1C)Cc1ccccc1 [denatonium-B, denatonium benzoate]
cell response to tastant (increase in intracellular calcium, FLIPR calcium flux) (MB9812 cells): respond | cell response to tastant (increase in intracellular calcium, FLIPR calcium flux) (MB9812 cells; listed as denatonium B): response | cell response to tastant (increase in intracellular calcium, FLIPR calcium flux) (NCI-H520 cells): respond | cell response to tastant (increase in intracellular calcium, FLIPR calcium flux) (NCI-H522 cells): respond

OC[C@H]1O[C@@](CO)(O[C@H]2O[C@H](CO)[C@@H](O)[C@H](O)[C@H]2O)[C@@H](O)[C@@H]1O [sucrose]
cell response to tastant (increase in intracellular calcium, FLIPR calcium flux) (MB9812 cells): response
